From PMC3961306, “Comparison of the Cancer Gene Targeting and Biochemical Selectivities of All Targeted Kinase Inhibitors Approved for Clinical Use” (PLoS ONE, 2014)

Experiments:
Assay in all cases: Kinase profiling in a biochemical assay panel (mobility shift assays and ELISA), %-inhibition at 1 μM; selectivity entropy
[1] = molecular target: T1, panel of more than 300 wild-type and mutant kinases (313 kinase panel) (Homo sapiens, UniProt P15735)
T1 sequence (P15735 1-406): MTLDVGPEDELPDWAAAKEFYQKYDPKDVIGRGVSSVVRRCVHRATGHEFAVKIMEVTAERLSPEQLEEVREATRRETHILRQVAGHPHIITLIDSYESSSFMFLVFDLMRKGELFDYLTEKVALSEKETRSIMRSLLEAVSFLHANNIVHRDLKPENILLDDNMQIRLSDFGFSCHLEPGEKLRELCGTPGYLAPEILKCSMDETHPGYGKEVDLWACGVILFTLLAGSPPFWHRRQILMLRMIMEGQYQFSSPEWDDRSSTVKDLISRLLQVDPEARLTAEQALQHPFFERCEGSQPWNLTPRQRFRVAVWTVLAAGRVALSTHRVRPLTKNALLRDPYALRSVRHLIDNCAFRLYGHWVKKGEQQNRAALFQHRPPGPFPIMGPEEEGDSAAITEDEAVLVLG

[2] = molecular target: panel of more than 300 wild-type and mutant kinases (313 kinase panel) (Homo sapiens, UniProt P31749); details: kinase AKT1; 1 μM compound
Sequence of panel of more than 300 wild-type and mutant kinases (313 kinase panel) (Homo sapiens, UniProt P31749) (P31749 whole entry, change not shown): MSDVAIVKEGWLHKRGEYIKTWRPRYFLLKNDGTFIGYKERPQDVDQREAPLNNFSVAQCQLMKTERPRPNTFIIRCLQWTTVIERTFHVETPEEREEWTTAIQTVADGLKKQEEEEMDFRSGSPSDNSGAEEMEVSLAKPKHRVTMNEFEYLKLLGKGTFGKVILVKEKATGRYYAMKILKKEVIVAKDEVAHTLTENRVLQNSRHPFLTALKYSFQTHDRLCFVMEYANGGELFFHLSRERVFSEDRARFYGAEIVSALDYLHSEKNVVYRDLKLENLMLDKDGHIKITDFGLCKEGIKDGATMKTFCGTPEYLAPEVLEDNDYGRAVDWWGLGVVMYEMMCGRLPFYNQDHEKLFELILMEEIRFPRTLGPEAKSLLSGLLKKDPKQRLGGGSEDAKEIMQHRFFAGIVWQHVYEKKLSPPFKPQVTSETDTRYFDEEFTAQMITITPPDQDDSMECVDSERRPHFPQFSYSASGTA

[3] = molecular target: panel of more than 300 wild-type and mutant kinases (313 kinase panel) (Homo sapiens, UniProt Q04759)
Sequence of panel of more than 300 wild-type and mutant kinases (313 kinase panel) (Homo sapiens, UniProt Q04759) (Q04759 whole entry, change not shown): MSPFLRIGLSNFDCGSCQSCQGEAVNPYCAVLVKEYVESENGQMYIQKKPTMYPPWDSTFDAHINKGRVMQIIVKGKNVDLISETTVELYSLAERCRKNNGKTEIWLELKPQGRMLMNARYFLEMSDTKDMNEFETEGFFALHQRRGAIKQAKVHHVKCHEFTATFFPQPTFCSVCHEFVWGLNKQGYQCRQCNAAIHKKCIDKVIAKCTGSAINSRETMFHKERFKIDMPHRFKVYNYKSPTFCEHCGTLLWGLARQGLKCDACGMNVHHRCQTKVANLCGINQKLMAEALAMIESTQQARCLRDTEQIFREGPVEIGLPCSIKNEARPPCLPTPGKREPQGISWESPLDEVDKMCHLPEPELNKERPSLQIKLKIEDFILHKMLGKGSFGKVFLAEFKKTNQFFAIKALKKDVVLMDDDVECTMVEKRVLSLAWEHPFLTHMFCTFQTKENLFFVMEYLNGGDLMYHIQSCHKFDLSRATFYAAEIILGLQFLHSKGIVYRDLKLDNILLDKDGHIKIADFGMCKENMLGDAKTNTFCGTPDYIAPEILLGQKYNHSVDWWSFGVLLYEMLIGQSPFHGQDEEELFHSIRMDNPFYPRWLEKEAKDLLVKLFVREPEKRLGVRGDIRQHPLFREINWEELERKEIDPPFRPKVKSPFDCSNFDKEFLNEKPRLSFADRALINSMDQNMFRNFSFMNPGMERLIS

[4] = molecular target: T2, panel of more than 300 wild-type and mutant kinases (313 kinase panel) (Homo sapiens, UniProt Q12866)
T2 sequence (Q12866 21-999): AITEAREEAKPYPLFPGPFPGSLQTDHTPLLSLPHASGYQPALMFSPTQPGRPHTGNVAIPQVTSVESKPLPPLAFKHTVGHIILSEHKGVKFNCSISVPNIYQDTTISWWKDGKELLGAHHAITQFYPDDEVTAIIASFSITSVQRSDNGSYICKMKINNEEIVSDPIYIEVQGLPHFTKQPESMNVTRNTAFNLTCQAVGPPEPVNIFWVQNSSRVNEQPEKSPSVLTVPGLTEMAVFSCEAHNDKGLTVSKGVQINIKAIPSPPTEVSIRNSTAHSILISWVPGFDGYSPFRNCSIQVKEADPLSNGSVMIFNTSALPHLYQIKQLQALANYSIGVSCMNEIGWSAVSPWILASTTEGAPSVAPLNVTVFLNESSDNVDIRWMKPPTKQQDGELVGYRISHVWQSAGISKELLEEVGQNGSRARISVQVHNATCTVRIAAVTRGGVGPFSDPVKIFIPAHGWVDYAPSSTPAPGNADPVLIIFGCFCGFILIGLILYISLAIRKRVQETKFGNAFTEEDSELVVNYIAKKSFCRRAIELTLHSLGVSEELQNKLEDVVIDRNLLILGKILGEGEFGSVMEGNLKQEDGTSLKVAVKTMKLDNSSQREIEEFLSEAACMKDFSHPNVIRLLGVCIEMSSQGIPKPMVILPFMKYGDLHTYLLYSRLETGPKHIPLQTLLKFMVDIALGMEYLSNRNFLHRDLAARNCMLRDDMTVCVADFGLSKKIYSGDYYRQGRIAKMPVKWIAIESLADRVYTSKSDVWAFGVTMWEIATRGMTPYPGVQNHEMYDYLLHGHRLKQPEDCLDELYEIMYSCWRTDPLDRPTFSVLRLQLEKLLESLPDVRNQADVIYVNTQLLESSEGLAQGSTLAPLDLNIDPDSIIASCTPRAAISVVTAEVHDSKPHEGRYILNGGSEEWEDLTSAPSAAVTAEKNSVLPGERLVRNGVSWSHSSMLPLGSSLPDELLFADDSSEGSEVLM

[5] = molecular target: panel of more than 300 wild-type and mutant kinases (313 kinase panel) (Homo sapiens, UniProt Q13233); details: kinase MAP3K1; compound at 1 μM
Sequence of panel of more than 300 wild-type and mutant kinases (313 kinase panel) (Homo sapiens, UniProt Q13233) (Q13233 whole entry, change not shown): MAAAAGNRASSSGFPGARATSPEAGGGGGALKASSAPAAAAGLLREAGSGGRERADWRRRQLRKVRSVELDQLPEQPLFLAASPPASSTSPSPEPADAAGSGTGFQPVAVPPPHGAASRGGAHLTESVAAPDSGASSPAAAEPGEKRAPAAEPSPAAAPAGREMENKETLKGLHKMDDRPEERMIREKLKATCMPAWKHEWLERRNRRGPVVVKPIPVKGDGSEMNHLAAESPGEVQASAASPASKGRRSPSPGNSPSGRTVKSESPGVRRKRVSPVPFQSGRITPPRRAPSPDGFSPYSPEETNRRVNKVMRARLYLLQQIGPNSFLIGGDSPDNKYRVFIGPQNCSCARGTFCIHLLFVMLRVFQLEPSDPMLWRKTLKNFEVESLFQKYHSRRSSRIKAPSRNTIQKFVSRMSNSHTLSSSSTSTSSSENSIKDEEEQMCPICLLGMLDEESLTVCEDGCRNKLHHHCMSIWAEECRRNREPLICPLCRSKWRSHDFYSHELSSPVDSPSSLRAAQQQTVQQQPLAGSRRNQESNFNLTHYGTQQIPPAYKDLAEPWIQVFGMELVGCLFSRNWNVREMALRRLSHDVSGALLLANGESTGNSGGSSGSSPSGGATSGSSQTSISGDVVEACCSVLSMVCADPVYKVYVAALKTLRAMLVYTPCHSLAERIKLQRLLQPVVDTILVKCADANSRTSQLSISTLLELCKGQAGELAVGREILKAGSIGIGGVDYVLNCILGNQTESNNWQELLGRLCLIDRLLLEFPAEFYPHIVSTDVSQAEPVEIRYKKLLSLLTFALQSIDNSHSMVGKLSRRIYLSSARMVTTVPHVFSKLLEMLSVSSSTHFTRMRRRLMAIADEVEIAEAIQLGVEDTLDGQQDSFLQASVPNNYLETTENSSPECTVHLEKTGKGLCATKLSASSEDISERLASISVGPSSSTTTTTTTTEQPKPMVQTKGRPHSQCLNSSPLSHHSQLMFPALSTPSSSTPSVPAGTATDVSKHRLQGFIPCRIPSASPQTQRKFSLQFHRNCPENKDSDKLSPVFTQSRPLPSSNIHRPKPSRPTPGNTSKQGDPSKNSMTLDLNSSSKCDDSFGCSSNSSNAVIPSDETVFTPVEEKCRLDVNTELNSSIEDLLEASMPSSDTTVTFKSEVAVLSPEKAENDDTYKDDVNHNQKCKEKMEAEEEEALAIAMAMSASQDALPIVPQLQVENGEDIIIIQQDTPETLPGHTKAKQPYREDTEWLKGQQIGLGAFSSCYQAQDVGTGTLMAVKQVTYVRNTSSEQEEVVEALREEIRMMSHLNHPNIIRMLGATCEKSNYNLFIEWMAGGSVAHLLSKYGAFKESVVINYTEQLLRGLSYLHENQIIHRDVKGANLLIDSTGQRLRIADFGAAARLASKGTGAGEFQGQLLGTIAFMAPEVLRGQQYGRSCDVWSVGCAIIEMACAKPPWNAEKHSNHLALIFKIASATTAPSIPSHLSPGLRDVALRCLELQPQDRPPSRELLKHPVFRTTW

[6] = molecular target: panel of more than 300 wild-type and mutant kinases (313 kinase panel) (Homo sapiens, UniProt Q16654); details: kinase PDHK4; 1 μM
[7] = molecular target: panel of more than 300 wild-type and mutant kinases (313 kinase panel) (Homo sapiens, UniProt Q8IU85); details: kinase CaMK1δ; 1 μM compound
[8] = molecular target: T3, panel of more than 300 wild-type and mutant kinases (313 kinase panel) (Homo sapiens, UniProt Q96KB5); details: kinase PBK; 1 μM
T3 sequence (Q96KB5 1-322): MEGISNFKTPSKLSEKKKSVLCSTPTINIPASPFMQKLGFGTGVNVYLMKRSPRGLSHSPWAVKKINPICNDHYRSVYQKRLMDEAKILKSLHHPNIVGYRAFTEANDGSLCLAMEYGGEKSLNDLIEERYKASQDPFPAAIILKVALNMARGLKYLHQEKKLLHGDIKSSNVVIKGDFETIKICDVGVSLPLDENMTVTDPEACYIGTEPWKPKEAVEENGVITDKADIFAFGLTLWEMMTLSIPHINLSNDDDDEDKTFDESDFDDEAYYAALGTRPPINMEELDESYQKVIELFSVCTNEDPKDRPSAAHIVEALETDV

[9] = molecular target: panel of more than 300 wild-type and mutant kinases (313 kinase panel) (Homo sapiens, UniProt Q9Y3S1); details: kinase WNK2; compound at 1 μM

Structure (SMILES)	%-inhibition of PHKG2 ([1]; kinase PHKG2, 1 μM) [%]	%-inhibition, AKT1 [2] [%]	%-inhibition of PKCθ ([3]; kinase PKCθ, 1 μM) [%]	%-inhibition of MER ([4]; kinase MER, compound at 1 μM) [%]	%-inhibition of MAP3K1 [5] [%]	%-inhibition of PDHK4 [6] [%]	%-inhibition, CaMK1δ [7] [%]	%-inhibition of PBK [8] [%]	%-inhibition of WNK2 [9] [%]	%-inhibition of PHKG2 ([1]; 1 µM) [%]	%-inhibition of PKCθ ([3]; 1 µM) [%]	%-inhibition of MER ([4]; 1 µM) [%]
CO[C@H]1C[C@@H]2CC[C@@H](C)[C@@](O)(O2)C(=O)C(=O)N2CCCC[C@H]2C(=O)O[C@H]([C@H](C)C[C@@H]2CC[C@@H](OCCO)[C@H](OC)C2)CC(=O)[C@H](C)/C=C(\C)[C@@H](O)[C@@H](OC)C(=O)[C@H](C)C[C@H](C)/C=C/C=C/C=C/1C [everolimus]	-8	-7	-8	-4.24	7	2	-8	-10	-8			
O=S(=O)(c1cccc2cnccc12)N1CCCNCC1 [fasudil]	4	4.44	13	-2.34	1.37	4.74	-4	-2.33	1.45			
CS(=O)(=O)CCNCc1ccc(-c2ccc3ncnc(Nc4ccc(OCc5cccc(F)c5)c(Cl)c4)c3c2)o1 [lapatinib]		2.63		6	1.76	-4.31	-4	6	-5	0.269	0	
Cc1cn(-c2cc(NC(=O)c3ccc(C)c(Nc4nccc(-c5cccnc5)n4)c3)cc(C(F)(F)F)c2)cn1 [nilotinib]	-9	11	-3.49	-46	-18	-4.31	3.56	-8	-8			
Cc1ccc(Nc2nccc(N(C)c3ccc4c(C)n(C)nc4c3)n2)cc1S(N)(=O)=O [pazopanib]	1	-2	-3.47	34	37	-1	-1.49	-5	3			
Cc1ccc(C(=O)Nc2ccc(CN3CCN(C)CC3)c(C(F)(F)F)c2)cc1C#Cc1cnc2cccnn12 [ponatinib]			0.0638		-9	-1.4		-14	13			
CNC(=O)c1cc(Oc2ccc(NC(=O)Nc3ccc(Cl)c(C(F)(F)F)c3)c(F)c2)ccn1 [regorafenib]	-8	-5.68	-7.47	29	4	-1.61	-5.29	-29	-4.43			
N#CC[C@H](C1CCCC1)n1cc(-c2ncnc3[nH]ccc23)cn1 [ruxolitinib]	18	-5	-1.47		-10	-6		-19	-4.57			-0.749
